Assay results from patent US20080269343A1, “GALENIC FORMULATIONS OF ORGANIC COMPOUNDS” (priority 2004, published 2008).

Key:
[1] = Steady-state pharmacokinetics of aliskiren 300 mg alone, digoxin interaction study, Day 7 (Example 8); format: in vivo, human; details: 300 mg daily, Day 7, healthy volunteers N 21; for AUC / Cmax / Tmax: human, in vivo, oral, 300 mg
Procedure: The study employed was an open-label, two-period, multiple-dose design to evaluate the pharmacokinetic drug-drug interaction between digoxin and aliskiren when given alone or in combination to healthy volunteers. A total of 22 healthy volunteers were enrolled into the study. The subjects were admitted to the study center at least 24 hours prior to the initial dosing of aliskiren for baseline evaluation. If subjects met all eligibility criteria at baseline, they were randomized into the study and confined to the clinic on days 1-7 and days 17-33. All study medications were taken under fasted condition. The study was completed with the end of study evaluations on Day 34, after the last blood sample was collected.
In period 1 (Days 1-7), subjects received a single 300 mg daily dose of aliskiren for 7 days. Period 1 was followed by a ten (10) day washout period. In period 2, subjects received a single 0.25 mg daily dose of digoxin for 9 days (Days 18-26) and aliskiren 300 mg once a day with a single 0.25 mg daily dose of digoxin co-administered for 7 days (Days 27-33).
Pharmacokinetic blood sampling for aliskiren alone occurred on Day 7 up to 24 hours post dose (5-mL blood samples were collected into lithium heparin tubes on Day 7 of the study at pre-dose, 0.5, 1, 2, 3, 4, 6, 8, 12, 16 and 24 hours after dosing).

[2] = Steady-state pharmacokinetics of aliskiren 300 mg alone, hydrochlorothiazide interaction study, Day 15 (Example 7); format: in vivo, human; details: 300 mg daily, Day 15, healthy volunteers N 22; for AUC / Cmax / Tmax: both sexes, human, in vivo, oral, 300 mg
Procedure: The study employed was an open-label, two-period, multiple dose design to evaluate the pharmacokinetic drug-drug interaction between hydrochlorothiazide (HCTZ) and aliskiren when given alone or in combination to healthy volunteers. After screening, a total of 22 healthy male and female volunteers were enrolled into the study. The subjects were admitted to the study center at least 12 hours prior to the initial dosing of HCTZ for baseline evaluation. If subjects met all eligibility criteria at baseline, they were randomized into the study and confined to the clinic until study completion. All study medications were taken under fasted conditions. The subjects remained in bed for at least 4 hours after dosing on PK sampling days. The study was completed with the end of study evaluations on Day 20, after the last blood sample was collected.
In period 1 (study Days 1-4), subjects received a single 25 mg daily dose of HCTZ. Period 1 was followed by a 4 day washout period, study Days 5-8. In period 2 (study Days 9-19), subjects received 300 mg of aliskiren once a day for a total of 11 days (Days 9-19), with a single 25 mg dose of HCTZ co-administered for 4 days (Days 16-19).
Pharmacokinetic blood sampling for aliskiren alone occurred on study Day 15 up to 24 hours post-dose (5-mL blood samples were collected into lithium heparin tubes on Day 15 of the study at pre-dose, 0.5, 1, 2, 3, 4, 6, 8, 12, 16 and 24 hours after dosing).

[3] = Hygroscopicity of the drug substance; format: physicochemical
[4] = Ranges of arithmetic mean plasma pharmacokinetic parameters provided by the 300 mg solid oral dosage form (summary of the studies); format: in vivo; details: human, range of study means
Procedure: (§1) For example, the present invention provides a solid oral dosage form comprising about 300 mg of aliskiren free base, or a respective amount of a pharmaceutically acceptable salt thereof, and a carrier medium, said dosage form providing an arithmetic mean maximum plasma concentration of aliskiren ranging from about 186 to about 394 ng/mL between about 0.25 and about 6 hours following administration of a single dosage of said dosage form.
as §1, with “Furthermore,” for “For example,”, “mg” for “mg of”, “AUC0-96” for “maximum plasma concentration”, “1480” for “186”, “1859 ng·h/mL” for “394 ng/mL between about 0.25 and about 6 hours”, “form. […]” for “form.”
The above description fully discloses the invention including preferred embodiments thereof. […] Arithmetic means for Cmax are calculated using the actual time points when the Cmax is observed whereas for the mean concentration versus time plots the nominal time values are employed.

## COCCCOc1cc(C[C@@H](C[C@H](N)[C@@H](O)C[C@H](C(=O)NCC(C)(C)C(N)=O)C(C)C)C(C)C)ccc1OC [aliskiren, 2(S),4(S),5(S),7(S)—N-(3-amino-2,2-dimethyl-3-oxopropyl)-2,7-di(1-methylethyl)-4-hydroxy-5-amino-8-[4-methoxy-3-(3-methoxy-propoxy)phenyl]-octanamide]
[1]; Geometric Mean
  Cmin^SS: 25.4 ng/mL
  AUC: 1600 ng·h/mL
  Cmax: 246 ng/mL
  Tmax: 1.39 h
[1]; Max
  AUCτ: 2710 ng·h/mL
  Cmax^SS: 478 ng/mL
  Cmin^SS: 41.5 ng/mL
  tmax^SS: 6.00 h
[1]; Median
  Cmin^SS: 24.1 ng/mL
  AUC: 1560 ng·h/mL
  Cmax: 234 ng/mL
  Tmax: 1 h
[1]; Min
  AUCτ: 943 ng·h/mL
  Cmax^SS: 131 ng/mL
  Cmin^SS: 13.1 ng/mL
  tmax^SS: 0.50 h
[1]; arithmetic mean
  Cmin^SS: 26.5 ng/mL
  AUC: 1670 ng·h/mL
  Cmax: 261 ng/mL
  Tmax: 1.93 h
[2]; Geometric Mean
  Cmin^SS: 32.5 ng/mL
  AUC: 2070 ng·h/mL
  Cmax: 354 ng/mL
  Tmax: 1.84 h
[2]; Max
  AUCτ: 3801 ng·h/mL
  Cmax^SS: 872.0 ng/mL
  Cmin^SS: 56.5 ng/mL
  tmax^SS: 6.00 h
[2]; Median
  Cmin^SS: 35.4 ng/mL
  AUC: 2320 ng·h/mL
  Cmax: 406 ng/mL
  Tmax: 2.24 h
[2]; Min
  AUCτ: 512 ng·h/mL
  Cmax^SS: 27.3 ng/mL
  Cmin^SS: 13.4 ng/mL
  tmax^SS: 0.50 h
[2]; arithmetic mean
  Cmin^SS: 35.0 ng/mL
  AUC: 2310 ng·h/mL
  Cmax: 425 ng/mL
  Tmax: 2.23 h
[3]
  hygroscopicity: highly hygroscopic
[4]; about 300 mg every 24 hours, steady state, read-out: arithmetic mean AUC0-τ of aliskiren
  AUC: 1670 to 2520 ng·h/mL
[4]; single dosage of about 300 mg free base, read-out: arithmetic mean AUC0-96 of aliskiren
  AUC(0-t): 1480 to 1860 ng·h/mL
